Experimental findings from patent publication US11780845B2 (Relay Therapeutics, Inc., priority 2019, dated 2023) are described below.

Each structure is given as a SMILES string.

The IC50 is the concentration that gives 50% inhibition. A high value points to a need for much substance.

One assay relates to SNU16 cells. Description: SNU16 Cancer Cell Line Proliferation Assay. The format is cell-based. To be noted: Homo sapiens; SNU-16 cells. Summed up:
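SNU16 cells were seeded, held 24 h at 37 degrees, then dosed with an 11-point 3-fold dilution series prepared from a 10 mM DMSO stock. After 96 h incubation, viability was read by CellTiter Glo luminescence.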

For another assay, the target named is FGFR2 (Homo sapiens (Human), UniProt P21802). Nature of the assay: FGFR2 Biochemical Caliper Assay. As for the experimental part:
Compounds of the present invention were also tested in a FGFR2 Biochemical Caliper Assay. Compounds were prepared in 10 mM DMSO solution and serially diluted into 11 concentrations by 3-fold dilution. […] 5 uL of ATP solution (100 uM) was added to start the reaction and the plate was incubated for 90 minutes, then 70 uL of stopping buffer (0.5M EDTA) was added to terminate the reaction. Each well was analyzed using EZ reader.

Sequence of FGFR2 (P21802 22-821): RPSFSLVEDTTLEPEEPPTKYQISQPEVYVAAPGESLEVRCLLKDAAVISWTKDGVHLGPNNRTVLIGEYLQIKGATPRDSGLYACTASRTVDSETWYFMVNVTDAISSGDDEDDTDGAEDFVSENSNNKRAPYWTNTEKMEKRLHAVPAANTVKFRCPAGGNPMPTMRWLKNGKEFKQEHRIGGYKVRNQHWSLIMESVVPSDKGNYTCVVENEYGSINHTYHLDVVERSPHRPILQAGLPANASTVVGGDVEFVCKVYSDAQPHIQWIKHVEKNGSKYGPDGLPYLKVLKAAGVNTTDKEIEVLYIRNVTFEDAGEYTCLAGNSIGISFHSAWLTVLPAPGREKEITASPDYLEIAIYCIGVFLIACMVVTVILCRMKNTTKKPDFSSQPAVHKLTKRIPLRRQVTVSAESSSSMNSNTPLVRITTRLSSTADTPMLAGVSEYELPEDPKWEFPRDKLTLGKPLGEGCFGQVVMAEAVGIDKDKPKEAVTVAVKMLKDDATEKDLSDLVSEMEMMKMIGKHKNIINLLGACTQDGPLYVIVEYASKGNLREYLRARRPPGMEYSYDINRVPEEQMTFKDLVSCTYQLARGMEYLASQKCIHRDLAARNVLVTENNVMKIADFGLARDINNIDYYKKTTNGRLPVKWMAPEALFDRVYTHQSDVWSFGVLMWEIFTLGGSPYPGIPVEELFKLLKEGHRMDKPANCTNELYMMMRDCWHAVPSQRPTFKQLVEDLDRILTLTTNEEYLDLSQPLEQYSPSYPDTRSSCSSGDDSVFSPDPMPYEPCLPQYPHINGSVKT

Take `C=CC(=O)N1CCC(c2c(-c3cnn(CC(F)(F)F)c3)c3c(N)ncnc3n2C)C1` (stereo not shown) [Example 723]: the IC50 in the assay with SNU16 cells and at FGFR2 was 1000 to 100000 nM throughout.
On to `C=CC(=O)N1CCC(c2c(-c3cnn(-c4ccccn4)c3)c3c(N)ncnc3n2C)C1` (stereo not shown) [Example 779], for which the IC50 in the assay with SNU16 cells and against FGFR2 was 1000 to 100000 nM each time.
As for `C=C(C)C(=O)Nc1ccc(-c2c(-c3ccc(Oc4nccc(C)n4)c(F)c3)c3c(N)ncnc3n2C)c(CO)c1` [Example 513], the IC50 with SNU16 cells is at most 100 nM; on FGFR2, below 100 nM.
As for `C=C(C)C(=O)Nc1ccc(-c2c(-c3ccc(C(=O)N4CCCC[C@H]4C)cc3)c3c(N)ncnc3n2C)cc1` [Example 293], the IC50 was at most 100 nM in the assay on SNU16 cells and below 100 nM against FGFR2.
For `C=C(C)C(=O)Nc1ccc(-c2c(C3=CCC(C(=O)N4CC5CCC(C5)C4)CC3)c3c(N)ncnc3n2C)cc1` (stereo not shown) [Example 387], the IC50 in the assay on SNU16 cells was at most 100 nM; at FGFR2 it was 100 to 250 nM.
